Calls of active or inactive are those of the source. The calls are words filed in the database; no cut-off is given here.
Experiments:
[1] = tested on: Agrobacterium tumefaciens; assay: Antitumor activity against Agrobacterium tumefaciens B6-induced crown-gall tumor formation in potato assessed as tumor induction at 25 ug/disk after 12 days at 27 degC by potato disk assay relative to control; type: functional
Enterobacter cloacae = assay: Antibacterial activity against Enterobacter cloacae at 50 to 500 ug/disk by paper-disk-plate technique; type: functional, organism-based
[2] = tested on: Agrobacterium tumefaciens; assay: Antitumor activity against Agrobacterium tumefaciens B6-induced crown-gall tumor formation in potato assessed as tumor induction at 50 ug/disk after 12 days at 27 degC by potato disk assay relative to control; type: functional
[3] = tested on: Agrobacterium tumefaciens; assay: Antitumor activity against Agrobacterium tumefaciens B6-induced crown-gall tumor formation in potato assessed as tumor induction at 10 ug/disk after 12 days at 27 degC by potato disk assay relative to control; type: functional
[4] = tested on: Agrobacterium tumefaciens; assay: Antitumor activity against Agrobacterium tumefaciens B6-induced crown-gall tumor formation in potato assessed as tumor induction at 5 ug/disk after 12 days at 27 degC by potato disk assay relative to control; type: functional
Bacillus cereus = assay: Antibacterial activity against Bacillus cereus at 50 to 500 ug/disk by paper-disk-plate technique; type: functional, organism-based
[5] = tested on: Brochothrix thermosphacta; assay: Antibacterial activity against Microbacterium thermosphactum at 50 to 500 ug/disk by paper-disk-plate technique; type: functional, organism-based
Citrobacter freundii = assay: Antibacterial activity against Citrobacter freundii at 50 to 500 ug/disk by paper-disk-plate technique; type: functional, organism-based
Bacillus subtilis = assay: Antibacterial activity against Bacillus subtilis at 50 to 500 ug/disk by paper-disk-plate technique; type: functional, organism-based
Curvularia lunata = assay: Antifungal activity against Curvularia lunata at 50 to 500 ug/disk by paper-disk-plate technique; type: functional, organism-based
Escherichia coli = assay: Antibacterial activity against Escherichia coli at 50 to 500 ug/disk by paper-disk-plate technique; type: functional, organism-based
Chaetomium = assay: Antifungal activity against Chaetomium at 50 to 500 ug/disk by paper-disk-plate technique; type: functional, organism-based
Aspergillus flavus = assay: Antifungal activity against Aspergillus flavus at 50 to 500 ug/disk by paper-disk-plate technique; type: functional, organism-based
[6] = tested on: Agrobacterium tumefaciens; assay: Antibacterial activity against Agrobacterium tumefaciens at 50 to 500 ug/disk by paper-disk-plate technique; type: functional, organism-based

With `CCCCCc1cccc(=O)o1` the Activity [1] was -35.5%.
For `CO[C@]12c3c(C)cc(O)c4c(=O)occ(c34)C(=O)[C@H]1[C@]13COC(=O)c4c(O)cc(C)c(c41)C(=O)[C@H]2[C@@H]3OC(C)=O`, the Activity (Enterobacter cloacae) was “inactive”, the Activity [2] was -94% and the Activity [3] was -74%. For the same compound, the Activity [4] was -67%, the Activity (Bacillus cereus) was “inactive” and the Activity [5] was “inactive”. The Activity (Citrobacter freundii) was “inactive”, the Activity (Bacillus subtilis) was “inactive” and the Activity (Curvularia lunata) was “inactive”. For the same compound, the Activity (Escherichia coli) was “inactive”, the Activity (Chaetomium) was “inactive” and the Activity [1] was -95%. For the same compound, the Activity (Aspergillus flavus) was “inactive” and the Activity [6] was “inactive”.
`CC(=C\C(=O)O)/C=C(\C)C[C@H](C)CCCC[C@H]1OC(=O)[C@@H]1CO` [ANTIBIOTIC 1233A] showed an Activity [1] of -39%.
With `C[C@H]1CCC/C=C/[C@@H]2C[C@H](O)C[C@H]2[C@H](O)/C=C/C(=O)O1` [BREFELDIN A] the Activity [1] was -62%.
In the case of `CC[C@@]1(O)C(=O)OCc2c1cc1n(c2=O)Cc2cc3ccccc3nc2-1` [CAMPTOTHECIN], the Activity [1] is reported as -100%.
`CC[C@H]1C2[C@H]([C@@H](C)c3c[nH]c4ccccc34)NC(=O)[C@@]23C(=O)/C=C\C(=O)[C@H](O)/C(C)=C\[C@@H](C)C/C=C/[C@H]3[C@@H]2O[C@]12C` (some centres undefined) [CHAETOGLOBOSIN K] was tested, and the Activity (Enterobacter cloacae) was “inactive”, the Activity [2] was -100% and the Activity [3] was -97%. The Activity [4] was -74%, the Activity (Bacillus cereus) was “inactive” and the Activity [5] was “inactive”. The Activity (Citrobacter freundii) was “inactive”, the Activity (Bacillus subtilis) was “inactive” and the Activity (Curvularia lunata) was “inactive”. The Activity (Escherichia coli) was “inactive”, the Activity (Chaetomium) was “inactive” and the Activity [1] was -94%. The Activity (Aspergillus flavus) was “inactive” and the Activity [6] was “inactive”.
`CC1=C2C(=CO[C@H](C)[C@H]2C)C(O)=C(C(=O)O)C1=O` [CITRININ] gave an Activity [1] of -26%.
Work on `C[C@H]1CCC[C@H](C[C@H]2Cc3cc(O)cc(O)c3C(=O)O2)O1` [CLADOSPORIN] yielded an Activity [2] of -90%, an Activity [3] of -16% and an Activity [4] of -14%. It also gave an Activity [1] of -79%.
With `CC[C@@H]1CCc2occ(CO)c(=O)c2[C@H]1O` [DIPLODIOL] the Activity (Enterobacter cloacae) was “inactive”, the Activity [2] was -75% and the Activity [3] was -73%. For the same compound, the Activity [4] was -70%, the Activity (Bacillus cereus) was “inactive” and the Activity [5] was “inactive”. The Activity (Citrobacter freundii) was “inactive”, the Activity (Bacillus subtilis) was “inactive” and the Activity (Curvularia lunata) was “inactive”. The Activity (Escherichia coli) was “inactive”, the Activity (Chaetomium) was “inactive” and the Activity [1] was -96.3%. The Activity (Aspergillus flavus) was “inactive” and the Activity [6] was “inactive”.
`CCCCCC[C@@H]1O[C@]23O[C@H]1CC[C@H]2[C@@H](O)CC[C@H]3O` [KONINGININ A] gave an Activity [1] of 75%.
Work on `CCCCCC[C@@H](O)[C@H]1CCC2=C(O1)[C@@H](O)CCC2=O` [KONINGININ B] yielded an Activity [1] of 1%.
`C[C@@H]1C/C=C/CCCCC(=O)Cc2cc(O)cc(O)c2C(=O)O1` [MONOCILLIN IV] was tested, and the Activity (Enterobacter cloacae) was “inactive”, the Activity [2] was -75% and the Activity [3] was -63%. The Activity [4] was -8%, the Activity (Bacillus cereus) was “inactive” and the Activity [5] was “inactive”. The Activity (Citrobacter freundii) was “inactive”, the Activity (Bacillus subtilis) was “inactive” and the Activity (Curvularia lunata) was “inactive”. For the same compound, the Activity (Escherichia coli) was “inactive”, the Activity (Chaetomium) was “inactive” and the Activity [1] was -78%. For the same compound, the Activity (Aspergillus flavus) was “inactive” and the Activity [6] was “inactive”.
For `O=C1C=C2C(=CCOC2O)O1` (centres undefined) [PATULIN], the Activity [1] was -66%.
`CC(C)=C1Oc2c(ccc3c2COC(C)(O)C3)C1=O` (centres undefined) [PERGILLIN] was tested, and the Activity [1] was -68.9%.
In the case of `C[C@@H]1C[C@H]2O[C@@H]2/C=C\C=C\C(=O)Cc2c(Cl)c(O)cc(O)c2C(=O)O1` [RADICICOL], the Activity [2] is reported as -100%, the Activity [3] is reported as -94% and the Activity [4] is reported as -76%. The Activity [1] was -75%.
In the case of `O=C(O)/C=C/CCCCCCCCC(=O)O` [TRAUMATIC ACID], the Activity [1] is reported as 28.4%.

Source: ChEMBL document CHEMBL1148037, “Effect of Fungal Natural Products in an Agrobacterium tumefaciens Potato Disc Assay” (1994)
